Test results taken from patent US10251849B2, “Sublingual compositions including epinephrine nanoparticles” (NOVA SOUTHEASTERN UNIVERSITY, priority 2012, dated 2019).
Structures can show the parent of a compound that is named as a salt. Where two headings read alike, the source gives them in different places.

Assays:
[1] = Description: Supernatant solution was withdrawn and filtered through 0.22 μm nylon syringe filters to be analyzed for the quantification of dissolved epinephrine.
Analysis and condition were performed according to USP 26th edition, 2003 “Epinephrine Injection Monograph.”

[2] = UV absorptivity of oxidative products of epinephrine at 310 nm; format: physicochemical; conditions: controls, not stored, 4 mg/mL
Description: The supernatant was visually inspected against white background for any discoloration (USP/NF. Official Monograph: Epinephrine Injection. 31/26 ed. Rockville, Md.: United States Pharmacopeial Convention, Inc.; 2008) and then filtered and diluted to make 4 mg/mL. […] The absorptivity of all samples and controls was calculated by dividing the absorbance by the product of the concentration of the drug (g/L) and the path length (cm) of the cell used to measure the absorbance (USP/NF. Physical Tests: Spectrophotometery and Light-Scattering (851). 31/26 ed. Rockville, Md.: United States Pharmacopeial Convention, Inc.; 2008).
The absorptivity of oxidative products of epinephrine in the tablets from each formulation at each storage condition and in controls was statistically compared by two-way ANOVA and Tukey-Kramer tests.

[3] = remark: listed apart in the source
Description: Samples were prepared in triplicates for each concentration, n=3. All prepared samples were processed using LV-1 High Shear Fluid Processor “Microfluidizer” (Microfluidics, Newton, Mass.) equipped with G10Z reaction chamber under various pressures ranging from 15 to 30 KPsi for single or several passes. The microfluidizer-receiving coil was immersed in ice to reduce the heat produced during the process for heat-sensitive drugs. The particle size and potential of the produced nanosuspension were measured. The nanosuspension was centrifuged at 15,000 rpm and 15° C. for 30 minutes to collect the nanoparticles, and the solvent was then removed. The collected nanoparticles were completely dried by speed vacuum concentrator or lyophilization.
(§1) Nanoparticle Characterization: The particle size distribution and zeta potential of the nanosuspension was measured before and after size reduction by volume and by intensity using Mastersizer (Malvern) and Zetasizer Nano-ZS90 (Malvern), respectively. The average of 3 measurements for each sample was reported.

[4] = various concentrations
Description: as §1

## CNC[C@H](O)c1ccc(O)c(O)c1 [Epinephrine Base, epinephrine]
[1]; solubility in water
  Amount Dissolved: 53.37 µg/mL

## CNC[C@H](O)c1ccc(O)c(O)c1 [epinephrine bitartrate, (−)-3,4-dihydroxy-α-[(methylamino)methyl]benzyl alcohol (+)-tartrate (1:1) salt]
[2]
  Absorptivity of Oxidative Products of Epinephrine (Mean ± SD): 0.001 ± 0.000
[1]; solubility in acetone
  Amount Dissolved: 31.28 µg/mL
[1]; solubility in acetonitrile
  Amount Dissolved: 15.46 µg/mL
[1]; solubility in chloroform
  Amount Dissolved: 1.87 µg/mL
[1]; solubility in ethyl acetate
  Amount Dissolved: 12.60 µg/mL
[1]; solubility in hexane
  Amount Dissolved: 0.53 µg/mL
[1]; solubility in isopropyl alcohol
  Amount Dissolved: 12.30 µg/mL
[1]; solubility in methanol
  Amount Dissolved: 209.01 µg/mL
[1]; solubility in tetrahydrofuran (THF)
  Amount Dissolved: 155.18 µg/mL
[3]; 0 passes, before processing, n = 6
  Mean ± SD particles size: 131,800 ± 10500 nm
[3]; 0.7 mg/ml, 1 pass at 30 KPsi
  polydispersity (pdi): (0.257 + 0.060)
[3]; 0.7 mg/ml, 2 passes at 30 KPsi
  polydispersity (pdi): (0.119 ± 0.052)
[3]; 0.7 mg/ml, 4 passes at 30 KPsi
  polydispersity (pdi): (0.217 ± 0.035)
[3]; 0.7 mg/ml, 5 passes at 30 KPsi
  polydispersity (pdi): (0.170 ± 0.070)
[3]; 0.7 mg/ml, 6 passes at 30 KPsi
  polydispersity (pdi): (0.195 ± 0.067)
[3]; 1.4 mg/ml, 1 pass at 30 KPsi
  polydispersity (pdi): (0.239 + 0.044)
[3]; 1.4 mg/ml, 2 passes at 30 KPsi
  polydispersity (pdi): (0.158 ± 0.021)
[3]; 1.4 mg/ml, 4 passes at 30 KPsi
  polydispersity (pdi): (0.178 ± 0.039)
[3]; 3.5 mg/ml, 1 pass at 30 KPsi
  polydispersity (pdi): (0.335 + 0.112)
[3]; 3.5 mg/ml, 2 passes at 30 KPsi
  polydispersity (pdi): (0.576 ± 0.080)
[3]; 4.5 mg/ml, 1 pass at 30 KPsi
  polydispersity (pdi): (0.321 + 0.060)
[3]; 4.5 mg/ml, 2 passes at 30 KPsi
  polydispersity (pdi): (0.315 ± 0.055)
[3]; as stated in summary text
  particle size before size reduction: 150.7±5 μm
[3]; before processing, n = 6
  10th percentile (Dv0.1): 39.8 ± 3.0 μm
  90th percentile (Dv0.9): 254.8 ± 20.1
  median (Dv0.5): 113.6 ± 9.1 μm
[4]
  color of the fabricated nanosuspension: no change in color
